Measured values: ChEMBL document CHEMBL1133069, “Highly sensitive and rapid detection of antibody catalysis by luminescent bacteria” (Bioorg Med Chem Lett, 2000)

Legend:
[1] = Kcat in bacterium VhM42
[2] = Km in bacterium VhM42

## CCCCCCCCC(O)CC(C)=O (configuration not stated)
[1]
  k cat: 1.67e-05 s⁻¹
[2]
  Km: 190 µM
